The assay has as its target CFTR-mediated chloride transport (Homo sapiens, UniProt P13569). Format: cell-based. Particulars: enteroid cells incubated with test compound 18-24 hours, acute 10 μM forskolin and 300 nM Compound III; for Max. Activity: % of chloride transport with 3 μM Compound A, 3 μM Compound II and 300 nM acute Compound III triple combination control. As to the method: Base medium (ADF+++) consisted of Advanced DMEM/Ham's F12, 2 mM Glutamax, 10 mM HEPES, […] penicillin/streptomycin.
Intestinal enteroid maintenance medium (IEMM) consisted of ADF+++, 1× B27 supplement, 1× N2 supplement, 1.25 mM N-acetyl cysteine, 10 mM Nicotinamide, 50 ng/mL hEGF, 10 nM Gastrin, 1 μg/mL hR-spondin-1, 100 ng/mL hNoggin, TGF-b type 1 inhibitor A-83-01, 100 μg/mL Primocin, 10 μM P38 MAPK inhibitor SB202190.
Bath 1 Buffer consisted of 1 mM MgCl2, 160 mM NaCl, 4.5 mM KCl, 10 mM HEPES, 10 mM Glucose, 2 mM CaCl2).
Chloride Free Buffer consisted of 1 mM Magnesium Gluconate, 2 mM Calcium Gluconate, 4.5 mM Potassium Gluconate, 160 mM Sodium Gluconate, 10 mM HEPES, 10 mM Glucose.
Bath1 Dye Solution consisted of Bath 1 Buffer, 0.04% Pluronic F127, 20 μM Methyl Oxonol, 30 μM CaCCinh-A01, 30 μM Chicago Sky Blue.
Chloride Free Dye Solution consisted of Chloride Free Buffer, 0.04% Pluronic F127, 20 μM Methyl Oxonol, 30 μM CaCCinh-A01, 30 μM Chicago Sky Blue.
Chloride Free Dye Stimulation Solution consisted of Chloride Free Dye Solution, 10 μM forskolin, 100 μM IBMX, and 300 nM Compound III.
Human intestinal epithelial enteroid cells were obtained from the Hubrecht Institute for Developmental Biology and Stem Cell Research, Utrecht, The Netherlands and expanded in T-Flasks as previously described (Dekkers J F, Wiegerinck C L, de Jonge H R, Bronsveld I, Janssens H M, de Winter-de Groot K M, Brandsma A M, de Jong N W M, Bijvelds M J C, Scholte B J, Nieuwenhuis E E S, van den Brink S, Clevers H, van der Ent C K, Middendorp S and M Beekman J M. A functional CFTR assay using primary cystic fibrosis intestinal organoids. Nat Med. 2013 July; 19(7):939-45).
Cells were recovered in cell recovery solution, collected by centrifugation at 650 rpm for 5 min at 4° C., resuspended in TryPLE and incubated for 5 min at 37° C. Cells were then collected by centrifugation at 650 rpm for 5 min at 4° C. and resuspended in IEMM containing 10 μM ROCK inhibitor (RI) (trans-4-[(1R)-1-aminoethyl]-N-4-pyridinylcyclohexanecarboxamide). The cell suspension was passed through a 40 μm cell strainer and resuspended at 1×10^6 cells/mL in IEMM containing 10 μM RI. Cells were seeded at 5000 cells/well into multi-well plates and incubated for overnight at 37° C., 95% humidity and 5% CO2 prior to assay.
Enteroid cells were incubated with test compound in IEMM for 18-24 hours at 37° C., 95% humidity and 5% CO2. Following compound incubations, a membrane potential dye assay was employed using a FLIPR Tetra to directly measure the potency and efficacy of the test compound on CFTR-mediated chloride transport following acute addition of 10 μM forskolin and 300 nM Compound III. Briefly, cells were washed 5 times in Bath 1 Buffer. Bath 1 Dye Solution was added and the cells were incubated for 25 min at room temperature. Following dye incubation, cells were washed 3 times in Chloride Free Dye Solution. Chloride transport was initiated by addition of Chloride Free Dye Stimulation Solution and the fluorescence signal was read for 15 min. The CFTR-mediated chloride transport for each condition was determined from the AUC of the fluorescence response to acute forskolin and 300 nM Compound III stimulation. Chloride transport was then expressed as a percentage of the chloride transport following treatment with 3 μM Compound A, 3 μM Compound II and 300 nM acute Compound III triple combination control (% Activity).

Structures are written as SMILES. Some results are limits rather than exact numbers.

Chain of CFTR-mediated chloride transport (P13569 whole entry, looked up): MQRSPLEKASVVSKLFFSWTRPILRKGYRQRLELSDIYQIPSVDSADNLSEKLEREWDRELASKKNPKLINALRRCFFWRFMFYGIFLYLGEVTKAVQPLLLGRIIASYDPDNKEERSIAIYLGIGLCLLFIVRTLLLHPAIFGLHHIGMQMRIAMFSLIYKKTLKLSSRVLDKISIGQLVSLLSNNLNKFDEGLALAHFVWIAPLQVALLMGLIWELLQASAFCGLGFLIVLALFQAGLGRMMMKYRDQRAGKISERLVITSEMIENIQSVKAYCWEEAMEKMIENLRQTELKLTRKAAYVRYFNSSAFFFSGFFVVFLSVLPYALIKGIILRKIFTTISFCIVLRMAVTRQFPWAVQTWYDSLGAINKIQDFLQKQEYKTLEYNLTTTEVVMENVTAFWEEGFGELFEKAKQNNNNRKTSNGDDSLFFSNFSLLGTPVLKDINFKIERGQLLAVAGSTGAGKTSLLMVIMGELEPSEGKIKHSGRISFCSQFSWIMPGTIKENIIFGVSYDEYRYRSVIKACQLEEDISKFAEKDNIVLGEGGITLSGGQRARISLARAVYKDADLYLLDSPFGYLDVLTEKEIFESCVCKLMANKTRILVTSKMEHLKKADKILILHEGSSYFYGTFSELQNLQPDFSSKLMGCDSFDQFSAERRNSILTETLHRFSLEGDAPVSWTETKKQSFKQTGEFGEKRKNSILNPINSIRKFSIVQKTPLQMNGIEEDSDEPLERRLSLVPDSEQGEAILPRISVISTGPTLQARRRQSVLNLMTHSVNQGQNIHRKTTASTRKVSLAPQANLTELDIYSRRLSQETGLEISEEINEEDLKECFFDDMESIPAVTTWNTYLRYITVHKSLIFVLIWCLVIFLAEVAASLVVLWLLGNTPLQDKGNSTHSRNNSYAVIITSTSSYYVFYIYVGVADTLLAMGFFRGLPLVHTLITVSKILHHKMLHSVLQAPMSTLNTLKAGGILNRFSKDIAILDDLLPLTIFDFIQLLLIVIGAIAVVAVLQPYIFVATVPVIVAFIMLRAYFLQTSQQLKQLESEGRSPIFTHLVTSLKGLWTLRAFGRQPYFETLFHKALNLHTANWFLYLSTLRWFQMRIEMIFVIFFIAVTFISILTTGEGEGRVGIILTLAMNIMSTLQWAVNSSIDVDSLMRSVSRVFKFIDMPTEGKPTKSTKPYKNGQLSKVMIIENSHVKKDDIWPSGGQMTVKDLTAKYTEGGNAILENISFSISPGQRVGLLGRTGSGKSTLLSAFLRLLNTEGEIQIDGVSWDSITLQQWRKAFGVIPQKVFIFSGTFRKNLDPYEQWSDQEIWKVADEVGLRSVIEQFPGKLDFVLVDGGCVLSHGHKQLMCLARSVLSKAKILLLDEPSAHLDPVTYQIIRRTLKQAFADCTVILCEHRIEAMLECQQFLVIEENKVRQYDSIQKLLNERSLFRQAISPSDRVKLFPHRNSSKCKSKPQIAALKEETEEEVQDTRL

Broadly, the EC50 is the concentration that produces a half-maximal response. `CC1(C)CC2CCCNc3cccc(n3)S(=O)(=O)NC(=O)c3ccc(-n4ccc(OCC5C6(CC6)C56CC6)n4)nc3N1C2` (racemic) [Compound 105, 8-[3-({dispiro[2.0.2.1]heptan-7-yl}methoxy)-1H-pyrazol-1-yl]-12,12-dimethyl-2λ^6-thia-3,9,11,18,23-pentaazatetracyclo[17.3.1.111,14.05,10]tetracosa-1(22),5,7,9,19(23),20-hexaene-2,2,4-trione]: the EC50 was below 1000 nM and the “Max. Activity” value was “+++ (+++ is >60%)”.

As to `CC(C)(C)COc1ccn(-c2ccc3c(n2)N2C[C@H](CCNc4cccc(n4)S(=O)(=O)NC3=O)CC2(C)C)n1` (single isomer, unassigned) [Compound 2, 11-[3-(2,2-dimethylpropoxy)-1H-pyrazol-1-yl]-7,7-dimethyl-17λ^6-thia-2,8,10,16,22-pentaazatetracyclo[16.3.1.15,8.09,14]tricosa-1(21),9(14),10,12,18(22),19-hexaene-15,17,17-trione], the EC50 lay in the range of 1000 to 3000 nM and the “Max. Activity” value is reported as “+++ (+++ is >60%)”.

Regarding `CC(C)(C)COc1ccn(-c2ccc3c(n2)N2C[C@H](CCNc4cccc(n4)S(=O)(=O)NC3=O)CC2(C)C)n1` (single isomer, unassigned) [Compound 3, 11-[3-(2,2-dimethylpropoxy)-1H-pyrazol-1-yl]-7,7-dimethyl-17λ^6-thia-2,8,10,16,22-pentaazatetracyclo[16.3.1.15,8.09,14]tricosa-1(21),9(14),10,12,18(22),19-hexaene-15,17,17-trione], the concentration giving a half-maximal response (EC50) was below 1000 nM and the “Max. Activity” value is on record as “+++ (+++ is >60%)”.

Regarding `CC1(C)C[C@H]2CCNc3cccc(n3)S(=O)(=O)NC(=O)c3ccc(-n4ccc(OCC5(C(F)(F)F)CC5)n4)nc3N1C2` (single isomer, unassigned) [Compound 5, 7,7-dimethyl-11-(3-{[1-(trifluoromethyl)cyclopropyl]methoxy}-1H-pyrazol-1-yl)-17λ^6-thia-2,8,10,16,22-pentaazatetracyclo[16.3.1.1(5,8).0(9,14)]tricosa-1(21),9(14),10,12,18(22),19-hexaene-15,17,17-trione], the EC50 is below 1000 nM and the “Max. Activity” value is “+++ (+++ is >60%)”.

With `CC1(C)C[C@H]2CCNc3cccc(n3)S(=O)(=O)NC(=O)c3ccc(-n4ccc(OCC5(C(F)(F)F)CC5)n4)nc3N1C2` (single isomer, unassigned) [Compound 6, 7,7-dimethyl-11-(3-{[1-(trifluoromethyl)cyclopropyl]methoxy}-1H-pyrazol-1-yl)-17λ^6-thia-2,8,10,16,22-pentaazatetracyclo[16.3.1.1(5,8).0(9,14)]tricosa-1(21),9(14),10,12,18(22),19-hexaene-15,17,17-trione], the EC50 was below 1000 nM and the “Max. Activity” value is recorded as “+++ (+++ is >60%)”.

For the compound `CC1(C)CC[C@H]2CCCOc3cccc(c3)S(=O)(=O)NC(=O)c3ccc(-n4ccc(OCCC5(C(F)(F)F)CC5)n4)nc3N21` (single isomer, unassigned) [Compound 7, 12,12-dimethyl-8-(3-{2-[1-(trifluoromethyl)cyclopropyl]ethoxy}-1H-pyrazol-1-yl)-19-oxa-2λ^6-thia-3,9,11-triazatetracyclo[18.3.1.05,10.011,15]tetracosa-1(24),5(10),6,8,20,22-hexaene-2,2,4-trione], the EC50 was below 1000 nM and the “Max. Activity” value is listed as “++ (++ is 30-60%)”.

Take `CC1(C)CC[C@H]2CCCOc3cccc(c3)S(=O)(=O)NC(=O)c3ccc(-n4ccc(OCCC5(C(F)(F)F)CC5)n4)nc3N21` (single isomer, unassigned) [Compound 8, 12,12-dimethyl-8-(3-{2-[1-(trifluoromethyl)cyclopropyl]ethoxy}-1H-pyrazol-1-yl)-19-oxa-2λ^6-thia-3,9,11-triazatetracyclo[18.3.1.05,10.011,15]tetracosa-1(24),5(10),6,8,20,22-hexaene-2,2,4-trione]: the concentration for a half-maximal effect (EC50) was above 3000 nM and the “Max. Activity” value is “+ (+ is <30%)”.

Take `CC1(C)C[C@H]2CCCNc3cccc(n3)S(=O)(=O)NC(=O)c3ccc(-n4ccc(OCC5(C(F)(F)F)CC5)n4)nc3N1C2` (single isomer, unassigned) [Compound 21, 12,12-dimethyl-8-(3-{[1-(trifluoromethyl)cyclopropyl]methoxy}-1H-pyrazol-1-yl)-2λ^6-thia-3,9,11,18,23-pentaazatetracyclo[17.3.1.111,14.05,10]tetracosa-1(23),5(10),6,8,19,21-hexaene-2,2,4-trione]: the EC50 is above 3000 nM and the “Max. Activity” value is reported as “++ (++ is 30-60%)”.

For `CC1(C)C[C@H]2CCCNc3cccc(n3)S(=O)(=O)NC(=O)c3ccc(-n4ccc(OCC5(C(F)(F)F)CC5)n4)nc3N1C2` (single isomer, unassigned) [Compound 22, 12,12-dimethyl-8-(3-{[1-(trifluoromethyl)cyclopropyl]methoxy}-1H-pyrazol-1-yl)-2λ^6-thia-3,9,11,18,23-pentaazatetracyclo[17.3.1.111,14.05,10]tetracosa-1(23),5(10),6,8,19,21-hexaene-2,2,4-trione], the EC50 is below 1000 nM and the “Max. Activity” value is “+++ (+++ is >60%)”.

Turning to `CC1(C)C[C@H]2CNc3cccc(n3)S(=O)(=O)NC(=O)c3ccc(-n4ccc(OCCC5(C(F)(F)F)CC5)n4)nc3N1C2` (single isomer, unassigned) [Compound 24, 6,6-dimethyl-10-(3-{2-[1-(trifluoromethyl)cyclopropyl]ethoxy}-1H-pyrazol-1-yl)-16λ^6-thia-2,7,9,15,21-pentaazatetracyclo[15.3.1.14,7.08,13]docosa-1(20),8,10,12,17(21),18-hexaene-14,16,16-trione], the EC50 is above 3000 nM and the “Max. Activity” value is listed as “+ (+ is <30%)”.

Turning to `CC1(C)C[C@H]2CNc3cccc(n3)S(=O)(=O)NC(=O)c3ccc(-n4ccc(OCCC5(C(F)(F)F)CC5)n4)nc3N1C2` (single isomer, unassigned) [Compound 25, 6,6-dimethyl-10-(3-{2-[1-(trifluoromethyl)cyclopropyl]ethoxy}-1H-pyrazol-1-yl)-16λ^6-thia-2,7,9,15,21-pentaazatetracyclo[15.3.1.14,7.08,13]docosa-1(20),8,10,12,17(21),18-hexaene-14,16,16-trione], the EC50 was below 1000 nM and the “Max. Activity” value was “++ (++ is 30-60%)”.

In the case of `CC1(C)C[C@H]2CCNc3cccc(n3)S(=O)(=O)NC(=O)c3ccc(-n4ccc(OCCC5(C(F)(F)F)CC5)n4)nc3N1C2` (single isomer, unassigned) [Compound 26, 7,7-dimethyl-11-(3-{2-[1-(trifluoromethyl)cyclopropyl]ethoxy}-1H-pyrazol-1-yl)-17λ^6-thia-2,8,10,16,22-pentaazatetracyclo[16.3.1.15,8.09,14]tricosa-1(21),9,11,13,18(22),19-hexaene-15,17,17-trione], the EC50 is below 1000 nM and the “Max. Activity” value is given as “+++ (+++ is >60%)”.

In the case of `CC1(C)C[C@H]2CCNc3cccc(n3)S(=O)(=O)NC(=O)c3ccc(-n4ccc(OCCC5(C(F)(F)F)CC5)n4)nc3N1C2` (single isomer, unassigned) [Compound 27, 7,7-dimethyl-11-(3-{2-[1-(trifluoromethyl)cyclopropyl]ethoxy}-1H-pyrazol-1-yl)-17λ^6-thia-2,8,10,16,22-pentaazatetracyclo[16.3.1.15,8.09,14]tricosa-1(21),9,11,13,18(22),19-hexaene-15,17,17-trione], the EC50 is below 1000 nM and the “Max. Activity” value is recorded as “+++ (+++ is >60%)”.

Source of the values: patent US11866450B2, “Modulators of Cystic Fibrosis Transmembrane Conductance regulator, pharmaceutical compositions, methods of treatment, and process for making the modulators” (priority 2018, dated 2024).
